This passage reports EC50 results from patent publication US9499550B2 (BRISTOL-MYERS SQUIBB COMPANY, priority 2012, dated 2016).

In assay [1] the test system is HCV genotype 1b (Con1) replicon in HUH-7 cells. The assay can be described thus: HCV replicon luciferase reporter assay, genotype 1b. It counts as cell-based. The note with it: Hepatitis C virus, Huh-7, 72 h, HCV genotype 1b replicon luciferase, 3 days incubation. An outline of the steps:
(§1)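 Replicon inhibition for both genotypes was measured as Renilla luciferase signal (EnduRen, 7.5 μM final, 2 h) after 3-day, 37° C exposure of replicon-bearing HUH-7 cells in 4% FCS DMEM, 0.5% DMSO. The 1b construct carries S1179I; the 1a H77 construct carries P1496L and S2204I. Twenty-point, 3-fold dilutions were fitted four-parametrically for EC50, and CC50 was taken from multiplexed Cell Titer-Blue.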
A general note: In antiviral work, replicon cells carry a viral genome segment that copies itself.

In assay [2] the test system is HCV genotype 1a (H77 strain) replicon in HUH-7 cells. The assay can be described thus: HCV replicon luciferase reporter assay, genotype 1a. It counts as cell-based. Particulars: Hepatitis C virus, Huh-7, 72 h, HCV genotype 1a replicon luciferase, 3 days incubation. Put shortly: as §1
Where [3] appears, read: GETYPE1B, read-out: LE_1b (EC50, range).
The mark [4] stands for this setting: GETYPE1A, read-out: LE_1a (EC50, range).

Read-outs that look alike come from different tables or passages of the source.

For `COc1ccc2nc(OC)c(O[C@@H]3C[C@H]4C(=O)N[C@]5(C(=O)NS(=O)(=O)C6(C)CC6)C[C@H]5/C=C\CC[C@@H](C)C[C@@H](C)[C@H](NC(=O)OC(C)(C)C)C(=O)N4C3)cc2c1` [Compound 4373, tert-butyl ((2R,6S,7R,9R,13aS,14aR,16aS,Z)-2-((2,6-dimethoxyquinolin-3-yl)oxy)-7,9-dimethyl-14a-(((1-methylcyclopropyl)sulfonyl)carbamoyl)-5,16-dioxo-1,2,3,5,6,7,8,9,10,11,13a,14,14a,15,16,16a-hexadecahydrocyclopropa[e]pyrrolo[1,2-a][1,4]diazacyclopentadecin-6-yl)carbamate], the EC50 in assay [1] (read-out: LE_1b (EC50, range)) lay in the range of 0.1 to 0.5 nM; in assay [2] (read-out: LE_1a (EC50, range)), 0.1 to 0.5 nM.

Consider `COc1ccc2c(O[C@@H]3C[C@H]4C(=O)N[C@]5(C(=O)NS(=O)(=O)C6(C)CC6)C[C@H]5/C=C\CC[C@@H](C)C[C@@H](C)[C@H](NC(=O)OC(C)(C)C)C(=O)N4C3)ncc(F)c2c1` [Compound 4374, tert-butyl ((2R,6S,7R,9R,13aS,14aR,16aS,Z)-2-((4-fluoro-6-methoxyisoquinolin-1-yl)oxy)-7,9-dimethyl-14a-(((1-methylcyclopropyl)sulfonyl)carbamoyl)-5,16-dioxo-1,2,3,5,6,7,8,9,10,11,13a,14,14a,15,16,16a-hexadecahydrocyclopropa[e]pyrrolo[1,2-a][1,4]diazacyclopentadecin-6-yl)carbamate], for which the EC50 in assay [1] (read-out: LE_1b (EC50, range)) lay in the range of 0.1 to 0.5 nM; in assay [2] (read-out: LE_1a (EC50, range)), 1.01 to 5 nM.

Consider `COc1ccc2c(Cl)ncc(O[C@@H]3C[C@H]4C(=O)N[C@]5(C(=O)NS(=O)(=O)C6(C)CC6)C[C@H]5/C=C\CC[C@@H](C)C[C@@H](C)[C@H](NC(=O)OC(C)(C)C)C(=O)N4C3)c2c1` [Compound 4375, tert-butyl ((2R,6S,7R,9R,13aS,14aR,16aS,Z)-2-((1-chloro-6-methoxyisoquinolin-4-yl)oxy)-7,9-dimethyl-14a-(((1-methylcyclopropyl)sulfonyl)carbamoyl)-5,16-dioxo-1,2,3,5,6,7,8,9,10,11,13a,14,14a,15,16,16a-hexadecahydrocyclopropa[e]pyrrolo[1,2-a][1,4]diazacyclopentadecin-6-yl)carbamate], for which the 50% effective concentration (EC50) in assay [1] (read-out: LE_1b (EC50, range)) lay in the range of 0.51 to 1 nM; in assay [2] (read-out: LE_1a (EC50, range)) it was 1.01 to 5 nM.

Regarding `COc1ccc2nc(OC)c(O[C@@H]3C[C@H]4C(=O)N[C@]5(C(=O)NS(=O)(=O)C6(CF)CC6)C[C@H]5/C=C\CC[C@@H](C)C[C@@H](C)[C@H](NC(=O)OC(C)(C)C)C(=O)N4C3)cc2c1` [Compound 4376, tert-butyl ((2R,6S,7R,9R,13aS,14aR,16aS,Z)-2-((2,6-dimethoxyquinolin-3-yl)oxy)-14a-(((1-(fluoromethyl)cyclopropyl)sulfonyl)carbamoyl)-7,9-dimethyl-5,16-dioxo-1,2,3,5,6,7,8,9,10,11,13a,14,14a,15,16,16a-hexadecahydrocyclopropa[e]pyrrolo[1,2-a][1,4]diazacyclopentadecin-6-yl)carbamate], the EC50 in assay [1] (read-out: LE_1b (EC50, range)) was 0.1 to 0.5 nM; in assay [2] (read-out: LE_1a (EC50, range)), 1.01 to 5 nM.

For the molecule `CC[C@@H]1C[C@H](C)CC/C=C\[C@@H]2C[C@@]2(C(=O)NS(=O)(=O)C2(C)CC2)NC(=O)[C@@H]2C[C@@H](Oc3cc4cc(OC)ccc4nc3OC)CN2C(=O)[C@H]1NC(=O)OC(C)(C)C` [Compound 4377, tert-butyl ((2R,6S,7R,9R,13aS,14aR,16aS,Z)-2-((2,6-dimethoxyquinolin-3-yl)oxy)-7-ethyl-9-methyl-14a-(((1-methylcyclopropyl)sulfonyl)carbamoyl)-5,16-dioxo-1,2,3,5,6,7,8,9,10,11,13a,14,14a,15,16,16a-hexadecahydrocyclopropa[e]pyrrolo[1,2-a][1,4]diazacyclopentadecin-6-yl)carbamate], the EC50 lay in the range of 0.1 to 0.5 nM in assay [1] (read-out: LE_1b (EC50, range)) and 0.51 to 1 nM in assay [2] (read-out: LE_1a (EC50, range)).

Regarding `COc1ccc2c(O[C@@H]3C[C@H]4C(=O)N[C@]5(C(=O)NS(=O)(=O)C6(CF)CC6)C[C@H]5/C=C\CC[C@@H](C)C[C@@H](C)[C@H](NC(=O)OC(C)(C)C(F)(F)F)C(=O)N4C3)ncc(F)c2c1` [Compound 4378], the results for the EC50 in assay [1] (setting [3]) and in assay [2] (setting [4]) were 0.51 to 1 nM and 1.01 to 5 nM, respectively.

As for `CC[C@@H]1C[C@H](C)CC/C=C\[C@@H]2C[C@@]2(C(=O)NS(=O)(=O)C2(C)CC2)NC(=O)[C@@H]2C[C@@H](Oc3ncc(F)c4cc(OC)ccc34)CN2C(=O)[C@H]1NC(=O)OC(C)(C)C(F)(F)F` [Compound 4379], the results for the EC50 in assay [1] (setting [3]) and in assay [2] (setting [4]) were 0.51 to 1 nM and 1.01 to 5 nM, respectively.

As to `COc1ccc2c(Cl)ncc(O[C@@H]3C[C@H]4C(=O)N[C@]5(C(=O)NS(=O)(=O)C6(CF)CC6)C[C@H]5/C=C\CC[C@@H](C)C[C@@H](C)[C@H](NC(=O)OC(C)(C)C)C(=O)N4C3)c2c1` [Compound 4380], the EC50 in assay [1] (read-out: LE_1b (EC50, range)) was in the range of 1.01 to 5 nM; in assay [2] (read-out: LE_1a (EC50, range)), 1.01 to 5 nM.

On to `CC[C@@H]1C[C@H](C)CC/C=C\[C@@H]2C[C@@]2(C(=O)NS(=O)(=O)C2(C)CC2)NC(=O)[C@@H]2C[C@@H](Oc3ncc(Cl)c4ccc(OC)cc34)CN2C(=O)[C@H]1NC(=O)OC(C)(C)C` [Compound 4381], for which the EC50 in assay [1] (read-out: LE_1b (EC50, range)) was in the range of 0.51 to 1 nM; in assay [2] (read-out: LE_1a (EC50, range)), 1.01 to 5 nM.

For `COc1ccc2c(O[C@@H]3C[C@H]4C(=O)N[C@]5(C(=O)NS(=O)(=O)C6(CF)CC6)C[C@H]5/C=C\CC[C@@H](C)C[C@@H](C)[C@H](NC(=O)OC(C)(C)C)C(=O)N4C3)ncc(F)c2c1` [Compound 4382, tert-butyl ((2R,6S,7R,9R,13aS,14aR,16aS,Z)-2-((4-fluoro-6-methoxyisoquinolin-1-yl)oxy)-14a-(((1-(fluoromethyl)cyclopropyl)sulfonyl)carbamoyl)-7,9-dimethyl-5,16-dioxo-1,2,3,5,6,7,8,9,10,11,13a,14,14a,15,16,16a-hexadecahydrocyclopropa[e]pyrrolo[1,2-a][1,4]diazacyclopentadecin-6-yl)carbamate], the EC50 lay in the range of 0.51 to 1 nM in assay [1] (read-out: LE_1b (EC50, range)) and 1.01 to 5 nM in assay [2] (read-out: LE_1a (EC50, range)).

On to `CC[C@@H]1C[C@H](C)CC/C=C\[C@@H]2C[C@@]2(C(=O)NS(=O)(=O)C2(C)CC2)NC(=O)[C@@H]2C[C@@H](Oc3ncc(F)c4cc(OC)ccc34)CN2C(=O)[C@H]1NC(=O)OC(C)(C)C` [Compound 4383, tert-butyl ((2R,6S,7R,9R,13aS,14aR,16aS,Z)-7-ethyl-2-((4-fluoro-6-methoxyisoquinolin-1-yl)oxy)-9-methyl-14a-(((1-methylcyclopropyl)sulfonyl)carbamoyl)-5,16-dioxo-1,2,3,5,6,7,8,9,10,11,13a,14,14a,15,16,16a-hexadecahydrocyclopropa[e]pyrrolo[1,2-a][1,4]diazacyclopentadecin-6-yl)carbamate], for which the EC50 fell in the range of 0.51 to 1 nM in assay [1] (read-out: LE_1b (EC50, range)) and 1.01 to 5 nM in assay [2] (read-out: LE_1a (EC50, range)).

For `COc1ccc(-c2nc(O[C@@H]3C[C@H]4C(=O)N[C@]5(C(=O)NS(=O)(=O)C6CC6)C[C@H]5/C=C\CC[C@H](C)C[C@@H](C)[C@H](NC(=O)OC(C)(C)C)C(=O)N4C3)c3ccc(OC)cc3n2)cc1` [Compound 5001, tert-butyl ((2R,6S,7R,9S,13aS,14aR,16aS,Z)-14a-((cyclopropylsulfonyl)carbamoyl)-2-((7-methoxy-2-(4-methoxyphenyl)quinazolin-4-yl)oxy)-7,9-dimethyl-5,16-dioxo-1,2,3,5,6,7,8,9,10,11,13a,14,14a,15,16,16a-hexadecahydrocyclopropa[e]pyrrolo[1,2-a][1,4]diazacyclopentadecin-6-yl)carbamate], the EC50 is less than 5.46 nM in assay [1] (read-out: LE_1b (EC50, range)) and less than 5.46 nM in assay [2] (read-out: LE_1a (EC50, range)).

`COc1ccc(-c2nc(O[C@@H]3C[C@H]4C(=O)N[C@]5(C(=O)NS(=O)(=O)C6CC6)C[C@H]5/C=C\CC[C@@H](C)C[C@@H](C)[C@H](NC(=O)OC(C)(C)C)C(=O)N4C3)c3ccc(OC)cc3n2)cc1` [Compound 5002, tert-butyl ((2R,6S,7R,9R,13aS,14aR,16aS,Z)-14a-((cyclopropylsulfonyl)carbamoyl)-2-((7-methoxy-2-(4-methoxyphenyl)quinazolin-4-yl)oxy)-7,9-dimethyl-5,16-dioxo-1,2,3,5,6,7,8,9,10,11,13a,14,14a,15,16,16a-hexadecahydrocyclopropa[e]pyrrolo[1,2-a][1,4]diazacyclopentadecin-6-yl)carbamate]: the half-maximal effective concentration (EC50) in assay [1] (read-out: LE_1b (EC50, range)) is less than 5.46 nM; in assay [2] (read-out: LE_1a (EC50, range)), less than 5.46 nM.

For `COc1nnc(O[C@@H]2C[C@H]3C(=O)N[C@]4(C(=O)NS(=O)(=O)C5CC5)C[C@H]4/C=C\CC[C@H](C)C[C@@H](C)[C@H](NC(=O)OC(C)(C)C)C(=O)N3C2)c2ccccc12` [Compound 5003, tert-butyl ((2R,6S,7R,9S,13aS,14aR,16aS,Z)-14a-((cyclopropylsulfonyl)carbamoyl)-2-((4-methoxyphthalazin-1-yl)oxy)-7,9-dimethyl-5,16-dioxo-1,2,3,5,6,7,8,9,10,11,13a,14,14a,15,16,16a-hexadecahydrocyclopropa[e]pyrrolo[1,2-a][1,4]diazacyclopentadecin-6-yl)carbamate], the EC50 in assay [1] (read-out: LE_1b (EC50)) is 1.96 nM; in assay [1] (read-out: LE_1b (EC50, range)) it was less than 5.46 nM; in assay [2] (read-out: LE_1a (EC50)), 5.46 nM; in assay [2] (read-out: LE_1a (EC50, range)), 4.82 to 103 nM.

Regarding `COc1nnc(O[C@@H]2C[C@H]3C(=O)N[C@]4(C(=O)NS(=O)(=O)C5CC5)C[C@H]4/C=C\CC[C@@H](C)C[C@@H](C)[C@H](NC(=O)OC(C)(C)C)C(=O)N3C2)c2ccccc12` [Compound 5004, tert-butyl ((2R,6S,7R,9R,13aS,14aR,16aS,Z)-14a-((cyclopropylsulfonyl)carbamoyl)-2-((4-methoxyphthalazin-1-yl)oxy)-7,9-dimethyl-5,16-dioxo-1,2,3,5,6,7,8,9,10,11,13a,14,14a,15,16,16a-hexadecahydrocyclopropa[e]pyrrolo[1,2-a][1,4]diazacyclopentadecin-6-yl)carbamate], the EC50 in assay [1] (read-out: LE_1b (EC50, range)) was less than 5.46 nM; in assay [2] (read-out: LE_1a (EC50, range)), less than 5.46 nM.

The term EC50 denotes the concentration at which the effect is half-maximal.
